Laboratory results taken from patent US9085593B2, “Therapeutic agent for arthrosis” (SANSHO CO., LTD., priority 2011, dated 2015).
“And” between values parts separate entries of the source, which are not always exact repeats. Equal values may be shown once.

Columns and labels:
[1] = test system: osteoarthritis in rabbit knee; assay: Pain assessment (weight distribution across both hind limbs), rabbit knee osteoarthritis model; type: in vivo, rabbits (Kbs:NZW); conditions: for Weight distribution, Mean / Left hind limb / Right hind limb / Weight distribution (%) on treated limb (right hind limb): 10 μg/rabbit into joint cavity; for Weight distribution, Mean: group mean n=6; for Left hind limb / Right hind limb / Weight distribution (%) on treated limb (right hind limb): individual animals 201-206, listed as Test substance, sodium salt
Procedure: (§1) Twelve 11- to 12-week-old male rabbits (Kbs:NZW) were used. Rabbits were reared in separate cages (one rabbit per cage) at 14.4° C. to 24.9° C. under light (12 hours from 7:00 am to 7:00 pm) with continuous ventilation. Rabbits were allowed to eat 150 g of feed (CR-3, CLEA Japan, Inc.) per day and to drink tap water.
(§2) (9Z)-9-Octadecenoic acid-(2-hydroxy-2-oxide-1,2-oxaphospholan-4-yl)methyl ester sodium salt (C18:1-cPA; hereafter, referred to as “ScPA”) was used.
(§3) Hair in the vicinity of the knee joint of the right hind limb of a rabbit was shaved using electrical clippers under deep anesthesia, and the shaved area was disinfected with Isodine. The outer coat on the medial aspect of the right hind limb was incised with a surgical knife, the boundary between the medial aspect and the articular capsule of the patellofemoral ligament was further incised, and the medial patellofemoral ligament was then dissected. Thereafter, the articular capsule was spread wide open to expose the medial meniscus, which was then completely removed. Following the removal of the meniscus, tissue and epidermis in the vicinity of the articular capsule were sutured. At the time of suturing, the site of operation was washed with physiological saline (titer: 500 mg/20 ml) containing antibiotics (Viccillin, Meiji Seika Pharma Co., Ltd.).
(§4) After the model animals were prepared, they were divided into two groups each consisting of 6 individuals while averaging body […] (i.e., the vehicle administered group of Animal Numbers 101 to 106 and the test substance (ScPA) administered group of Animal Numbers 201 to 206).
(§5) The test compound and the vehicle were administered in the manner described below. • Route of administration: into the joint cavity • Site of administration: right hind limb (treated limb) • Timing of administration: on days 7, 11, 14, 18, 21, 25, 28, 32, 35, and 39 • Dosage: Test compound: 10 μg/rabbit (volume: 0.2 ml) • Vehicle: 0.2 ml/rabbit • Means of administration: with the use of a 1.0-ml syringe (Terumo Corporation) and a 27 G injection needle (Terumo Corporation) (1-5) Pain Assessment (Weight Distribution Across both Hind Limbs) Frequency of Measurement:
Measurement was carried out seven times in total: i.e., before treatment and 1, 2, 3, 4, 5, and 6 weeks after the treatment.
Body weights loaded on the right hind limb and the left hind limb were separately measured using a weight scale, and the weight distribution on the treated limb (the right hind limb) was determined using the following equation. Weight distribution (%) on treated limb (right hind limb)=[right hind limb (kg)/(right hind limb (kg)+left hind limb (kg))]×100 (1-6) Swelling Assessment (Articular Swelling of both Hind Limbs) Frequency of Measurement: […]

[2] = test system: osteoarthritis in rabbit knee; assay: Swelling assessment (articular swelling of both hind limbs), rabbit knee osteoarthritis model; type: in vivo, rabbits (Kbs:NZW)
Procedure: as §1, §2, §3, §4, §5
Measurement was carried out 6 weeks after the treatment.
The widest areas at the joints of the right and left hind limbs were measured using digital calipers, and the articular swelling induced by osteoarthritis was determined using the following equation. Swelling (%) of treated limb (right hind limb)=[(right hind limb (mm)−left hind limb (mm))/(left hind limb (mm)[…])]×100 (1-7) Sampling of Biomaterials (day 42) and Post-Sampling Treatment

[3] = joint width, 10 μg/rabbit into joint cavity, Day 42, individual animals 201-206, listed as Test substance, sodium salt

## CCCCCCCC/C=C\CCCCCCCC(=O)OCC1COP(=O)([O-])C1.[Na+] (stereo not shown) [ScPA, (9Z)-9-Octadecenoic acid-(2-hydroxy-2-oxide-1,2-oxaphospholan-4-yl)methyl ester sodium salt]
[1]; Day 0 (before treatment)
  Weight distribution, Mean: 49.1%
  Left hind limb: 610 g and 400 g and 550 g and 460 g and 260 g and 310 g
  Right hind limb: 660 g and 320 g and 410 g and 490 g and 270 g and 350 g
  Weight distribution (%) on treated limb (right hind limb): 52% (2×) and 44% and 43% and 51% and 53%
[1]; Day 7
  Weight distribution, Mean: 32.1%
  Left hind limb: 1010 g and 410 g and 900 g and 750 g (2×) and 880 g
  Right hind limb: 660 g and 160 g and 140 g and 520 g and 430 g and 460 g
  Weight distribution (%) on treated limb (right hind limb): 40% and 28% and 13% and 41% and 33% and 38%
[1]; Day 14
  Weight distribution, Mean: 39.4%
  Left hind limb: 770 g and 400 g and 640 g and 810 g and 700 g and 600 g
  Right hind limb: 520 g and 200 g and 320 g and 630 g and 380 g and 610 g
  Weight distribution (%) on treated limb (right hind limb): 40% and 33% (2×) and 44% and 35% and 50%
[1]; Day 21
  Weight distribution, Mean: 43.0%
  Left hind limb: 710 g and 440 g and 350 g and 580 g (2×) and 760 g
  Right hind limb: 380 g and 370 g and 720 g and 250 g and 450 g and 440 g
  Weight distribution (%) on treated limb (right hind limb): 35% and 46% and 67% and 30% and 37% and 43%
[1]; Day 28
  Weight distribution, Mean: 47.0%
  Left hind limb: 700 g and 290 g and 260 g and 750 g and 710 g and 800 g
  Right hind limb: 600 g (2×) and 150 g and 390 g and 660 g and 780 g
  Weight distribution (%) on treated limb (right hind limb): 46% (2×) and 34% and 60% and 47% and 49%
[1]; Day 35
  Weight distribution, Mean: 39.1%
  Left hind limb: 650 g and 800 g and 470 g and 1030 g and 570 g and 870 g
  Right hind limb: 350 g (2×) and 380 g and 630 g and 560 g and 510 g
  Weight distribution (%) on treated limb (right hind limb): 35% and 30% and 45% and 38% and 50% and 37%
[1]; Day 42, p=0.0053 vs vehicle
  Weight distribution, Mean: 46.7%
[1]; Day 42
  Left hind limb: 620 g and 700 g and 380 g and 820 g and 840 g and 580 g
  Right hind limb: 440 g and 510 g and 630 g and 660 g and 520 g and 610 g
  Weight distribution (%) on treated limb (right hind limb): 42% (2×) and 62% and 45% and 38% and 51%
[1]; after day 14 up to day 42
  weight loaded on the treated limb (the right hind limb) compared with the vehicle administered group: maintained at higher levels
[2]; 10 μg/rabbit into joint cavity, Day 42, group mean n=6, p=0.0164 vs vehicle
  Swelling, Mean: 0.6%
[2]; 10 μg/rabbit into joint cavity, Day 42, individual animals 201-206, listed as Test substance, sodium salt
  Swelling (%) of treated limb (right hind limb): −1.75% and 1.58% and 3.72% and −5.46% and 6.59% and −1.97%
[2]; day 42, p=0.0164
  articular swelling compared with the vehicle administered group: inhibited more significantly
[2]; [3]
  Left hind limb (mm): 24.60 mm and 23.38 mm and 21.50 mm and 22.88 mm and 23.21 mm and 21.79 mm
  Right hind limb (mm): 24.17 mm and 23.75 mm and 22.30 mm and 21.63 mm and 24.74 mm and 21.36 mm
